# From patent publication US7238781B2, “Plant defensin polynucleotides and methods of use thereof” (E. I. DuPont de Nemours and Company, priority 1999, dated 2007)
# Tests used:
# Type in all cases: cell-based
# Sclerotinia sclerotiorum = test: In vitro 96 well microtiter plate assay, inhibition of hyphal growth; details: 24 hours at 22° C., 2 replicates
# Experimental: An in vitro assay was also performed in a 96 well microtiter plate to determine the activity of Pps-AMP1 mature peptide against Sclerotinia sclerotiorum. Test inoculum was started by inoculating ½ strength potato dextrose broth (PDB) liquid with a sterile loop of hyphae from a Sclerotinia culture propagated on ⅛ strength potato dextrose agar (PDA) plate. Liquid inoculum was held at room temperature (22° C.), without shaking, in the dark for 4 days, to allow sufficient growth of hyphae. The resulting suspension was macerated using a polytron tissue grinder. The sample was then diluted to the point of invisibility to the naked eye (observation under microscopy at 40× indicated the presence of hyphal fragments). […] […] Sclerotinia hyphae only, or ½ strength PDB only, were included as negative controls.
# Fusarium verticilloides = test: Bioactivity of Pps-AMP1 mature peptide against fungal pathogens (spore suspension in 1/2 strength PDB); details: concentration at which 90% of fungal growth is inhibited, 48 hour incubation at 28° C.
# Experimental: (§1) The purified refolded and lyophilized Pps-AMP1 mature peptide was resuspended in dH2O to a final concentration of about 4 μg/μl. 12 μg of purified Pps-AMP1 mature peptide was added to 200 μl of ½ strength potato dextrose broth (PDB) containing a spore suspension of either Fusarium verticilloides, Colletotrichum graminaria, or Neurospora crassa containing 2500 spores/ml. […] A 0.5× dilution series for Pps-AMP1 mature peptide from 10 μM through to about 0.005 μM was prepared by removing 100 μl of the 10 μM stock and adding it to 100 μl of spore suspension (2500 spores/ml), mixing thoroughly to achieve a 5 μM Pps-AMP1 mature peptide concentration, transferring 100 μl of the 5 μM suspension to a fresh 100 μl spore suspension etc., until about 0.005 μM was reached. Two replicates per pathogen were performed. […] Inhibition of fungal growth was defined as little to no spore germination without detectable hyphae growth. The bioactivity of Pps-AMP1 mature peptide against these fungal pathogens is shown below. The IC90 concentration represents that concentration at which 90% of fungal growth is inhibited.
# [1] = tested on: Colletotrichum graminaria; test: as above; details: concentration at which 90% of fungal growth is inhibited, 48 hour incubation at 28° C.
# Experimental: as §1
# Neurospora crassa = test: as above; details: concentration at which 90% of fungal growth is inhibited, 48 hour incubation at 28° C.
# Experimental: as §1
Compound,inhibition of fungal growth (Sclerotinia sclerotiorum; 0.023 μM),inhibition of fungal growth (Sclerotinia sclerotiorum; 17–0.07 μM),IC90 (Fusarium verticilloides),IC90 [1],IC90 (Neurospora crassa),inhibition of fungal growth (Sclerotinia sclerotiorum; 2.5 μM - 0.005 μM),inhibition of fungal growth (Sclerotinia sclerotiorum; 5 μM),inhibition of fungal growth (Sclerotinia sclerotiorum; 10 μM)
"COC(=O)Nc1nc2ccccc2[nH]1 [MBC standard, methyl 2-benzimidazolecarbamate, reference compound]",0.023 μM - moderate inhibition of fungal growth.,17–0.07 μM - total inhibition of fungal growth.,–,–,–,–,–,–
"Pps-AMP1 mature peptide: mature peptide of Picramnia pentandra defensin clone pps.pk0010.g2, expressed in E. coli, refolded and purified (QRLCERASLTWSGNCGNTAHCDNQCRSWEHAQHGACHVRGGKHMCFCYFNC)",–,–,600 nM,2500 nM,50 nM,2.5 μM - 0.005 μM no inhibition of fungal growth.,5 μM - moderate inhibiton of fungal growth.,10 μM - total inhibition of fungal growth.
